{"source": "ChEMBL document CHEMBL1201862", "about": "“PubChem BioAssay data set” (2004)", "type_in_all_cases": "functional", "key": {"[1]": {"biological_target": "T1, High affinity choline transporter 1 (Homo sapiens, UniProt Q9GZV3)", "T1 sequence (Q9GZV3 whole entry)": "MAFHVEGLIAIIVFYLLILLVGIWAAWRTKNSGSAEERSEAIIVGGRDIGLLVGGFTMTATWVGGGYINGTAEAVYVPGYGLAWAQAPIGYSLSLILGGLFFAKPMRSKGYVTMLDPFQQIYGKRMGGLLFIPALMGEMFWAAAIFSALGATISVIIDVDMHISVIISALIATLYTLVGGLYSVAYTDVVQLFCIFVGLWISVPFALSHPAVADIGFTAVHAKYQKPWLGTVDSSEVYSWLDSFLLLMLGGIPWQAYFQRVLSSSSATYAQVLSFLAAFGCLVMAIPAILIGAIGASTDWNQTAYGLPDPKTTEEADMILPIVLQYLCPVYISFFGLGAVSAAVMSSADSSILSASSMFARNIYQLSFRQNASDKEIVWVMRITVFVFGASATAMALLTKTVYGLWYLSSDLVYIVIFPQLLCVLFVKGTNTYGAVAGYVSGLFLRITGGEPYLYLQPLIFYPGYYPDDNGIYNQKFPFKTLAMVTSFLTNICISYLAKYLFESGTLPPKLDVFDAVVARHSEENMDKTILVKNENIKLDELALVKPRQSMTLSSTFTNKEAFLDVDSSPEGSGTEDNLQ", "test": "CHT inhibitors, dose response, cell-based, 5-point CRC, membrane potential dye (AID 504840)"}, "[2]": {"biological_target": "T1, High affinity choline transporter 1", "test": "CHT inhibitors, dose response, cell-based, 10-point CRC, membrane potential dye (AID 588401);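 note: membrane potential dye fluorescence of choline-evoked depolarization via CHT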"}, "[3]": {"biological_target": "Serine/threonine-protein kinase pim-1 (Homo sapiens, UniProt P11309)", "sequence (P11309 whole entry)": "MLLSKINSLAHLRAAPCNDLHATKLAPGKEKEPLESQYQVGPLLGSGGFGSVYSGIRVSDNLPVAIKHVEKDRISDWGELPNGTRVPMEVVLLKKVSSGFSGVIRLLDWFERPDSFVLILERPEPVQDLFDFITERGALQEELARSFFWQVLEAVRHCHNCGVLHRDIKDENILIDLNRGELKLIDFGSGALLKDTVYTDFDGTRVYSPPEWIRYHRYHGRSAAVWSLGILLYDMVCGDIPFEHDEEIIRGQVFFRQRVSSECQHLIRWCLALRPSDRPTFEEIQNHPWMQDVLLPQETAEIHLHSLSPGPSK"}, "[4]": {"biological_target": "Mitogen-activated protein kinase 8 (Homo sapiens, UniProt P45983)"}, "[5]": {"biological_target": "Cyclin-dependent kinase 8 (Homo sapiens, UniProt P49336)", "test": "Navigating the Kinome. Panel member name: CDK8"}, "[6]": {"biological_target": "Cyclin-dependent kinase 5 (Homo sapiens, UniProt Q00535)", "sequence (Q00535 whole entry)": "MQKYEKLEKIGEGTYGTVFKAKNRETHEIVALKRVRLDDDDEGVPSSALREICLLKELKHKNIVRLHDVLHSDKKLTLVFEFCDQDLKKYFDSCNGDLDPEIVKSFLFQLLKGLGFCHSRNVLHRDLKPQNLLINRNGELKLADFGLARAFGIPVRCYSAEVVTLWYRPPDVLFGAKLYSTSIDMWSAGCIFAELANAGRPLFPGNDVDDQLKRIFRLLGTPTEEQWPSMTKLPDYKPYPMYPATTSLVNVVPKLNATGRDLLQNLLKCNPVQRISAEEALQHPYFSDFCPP"}, "[7]": {"biological_target": "Serine/threonine-protein kinase D3 (Homo sapiens, UniProt O94806)"}, "[8]": {"biological_target": "Mitogen-activated protein kinase 14 (Homo sapiens, UniProt Q16539)"}, "[9]": {"biological_target": "Casein kinase I isoform alpha (Homo sapiens, UniProt P48729)"}, "[10]": {"biological_target": "Serine/threonine-protein kinase TAO1 (Homo sapiens, UniProt Q7L7X3)"}, "Focal adhesion kinase 1": {"biological_target": "Focal adhesion kinase 1 (Homo sapiens, UniProt Q05397)"}, "[11]": {"biological_target": "ALK tyrosine kinase receptor (Homo sapiens, UniProt Q9UM73)"}, "Activated CDC42 kinase 1": {"biological_target": "Activated CDC42 kinase 1 (Homo sapiens, UniProt Q07912)", "sequence (Q07912 whole entry)": "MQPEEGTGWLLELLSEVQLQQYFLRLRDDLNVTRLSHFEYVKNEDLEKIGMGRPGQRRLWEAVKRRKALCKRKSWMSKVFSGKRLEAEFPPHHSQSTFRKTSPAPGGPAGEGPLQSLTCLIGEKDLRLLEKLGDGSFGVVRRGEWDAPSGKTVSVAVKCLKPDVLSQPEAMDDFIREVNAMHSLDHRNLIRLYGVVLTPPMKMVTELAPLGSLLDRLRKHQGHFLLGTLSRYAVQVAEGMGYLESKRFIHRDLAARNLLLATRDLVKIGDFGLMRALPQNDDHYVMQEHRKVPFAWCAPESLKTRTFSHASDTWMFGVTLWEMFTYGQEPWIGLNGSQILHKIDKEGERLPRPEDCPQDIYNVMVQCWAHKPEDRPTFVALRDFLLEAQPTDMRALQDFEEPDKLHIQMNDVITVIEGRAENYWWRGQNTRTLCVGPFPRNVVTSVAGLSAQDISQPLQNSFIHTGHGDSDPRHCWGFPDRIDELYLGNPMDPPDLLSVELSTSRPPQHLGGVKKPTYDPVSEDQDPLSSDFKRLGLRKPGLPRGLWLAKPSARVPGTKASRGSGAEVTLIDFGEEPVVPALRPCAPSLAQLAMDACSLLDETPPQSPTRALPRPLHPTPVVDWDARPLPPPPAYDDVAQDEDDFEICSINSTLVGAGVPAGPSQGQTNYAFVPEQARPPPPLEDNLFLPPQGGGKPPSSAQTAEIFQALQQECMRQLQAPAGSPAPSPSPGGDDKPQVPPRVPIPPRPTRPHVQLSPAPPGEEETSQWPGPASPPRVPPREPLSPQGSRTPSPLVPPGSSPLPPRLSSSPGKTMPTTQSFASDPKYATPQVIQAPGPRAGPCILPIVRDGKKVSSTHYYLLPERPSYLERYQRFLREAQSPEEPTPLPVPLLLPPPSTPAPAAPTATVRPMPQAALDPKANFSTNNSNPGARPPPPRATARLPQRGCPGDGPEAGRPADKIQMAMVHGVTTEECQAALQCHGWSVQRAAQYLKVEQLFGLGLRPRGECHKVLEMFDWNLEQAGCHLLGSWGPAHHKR", "test": "Navigating the Kinome. Panel member name: ACK1"}, "[12]": {"biological_target": "G protein-coupled receptor kinase 5 (Homo sapiens, UniProt P34947)", "test": "Navigating the Kinome. Panel member name: GPRK5"}, "[13]": {"biological_target": "Dual specificity protein kinase CLK4 (Homo sapiens, UniProt Q9HAZ1)"}, "[14]": {"biological_target": "Calcium/calmodulin-dependent protein kinase type II subunit alpha (Homo sapiens, UniProt Q9UQM7)", "test": "Navigating the Kinome. Panel member name: CAMK2A"}, "[15]": {"biological_target": "Dual specificity protein kinase CLK2 (Homo sapiens, UniProt P49760)"}, "[16]": {"biological_target": "Serine/threonine-protein kinase Chk1 (Homo sapiens, UniProt O14757)"}, "[17]": {"biological_target": "Glycogen synthase kinase-3 alpha (Homo sapiens, UniProt P49840)"}, "[18]": {"biological_target": "Macrophage-stimulating protein receptor (Homo sapiens, UniProt Q04912)", "test": "Navigating the Kinome. Panel member name: MST1R"}, "[19]": {"biological_target": "Tyrosine-protein kinase JAK3 (Homo sapiens, UniProt P52333)"}, "[20]": {"biological_target": "Mitogen-activated protein kinase kinase kinase kinase 4 (Homo sapiens, UniProt O95819)"}, "[21]": {"biological_target": "Serine/threonine-protein kinase PAK 4 (Homo sapiens, UniProt O96013)"}, "[22]": {"biological_target": "Fibroblast growth factor receptor 1 (Homo sapiens, UniProt P11362)", "sequence (P11362 whole entry)": "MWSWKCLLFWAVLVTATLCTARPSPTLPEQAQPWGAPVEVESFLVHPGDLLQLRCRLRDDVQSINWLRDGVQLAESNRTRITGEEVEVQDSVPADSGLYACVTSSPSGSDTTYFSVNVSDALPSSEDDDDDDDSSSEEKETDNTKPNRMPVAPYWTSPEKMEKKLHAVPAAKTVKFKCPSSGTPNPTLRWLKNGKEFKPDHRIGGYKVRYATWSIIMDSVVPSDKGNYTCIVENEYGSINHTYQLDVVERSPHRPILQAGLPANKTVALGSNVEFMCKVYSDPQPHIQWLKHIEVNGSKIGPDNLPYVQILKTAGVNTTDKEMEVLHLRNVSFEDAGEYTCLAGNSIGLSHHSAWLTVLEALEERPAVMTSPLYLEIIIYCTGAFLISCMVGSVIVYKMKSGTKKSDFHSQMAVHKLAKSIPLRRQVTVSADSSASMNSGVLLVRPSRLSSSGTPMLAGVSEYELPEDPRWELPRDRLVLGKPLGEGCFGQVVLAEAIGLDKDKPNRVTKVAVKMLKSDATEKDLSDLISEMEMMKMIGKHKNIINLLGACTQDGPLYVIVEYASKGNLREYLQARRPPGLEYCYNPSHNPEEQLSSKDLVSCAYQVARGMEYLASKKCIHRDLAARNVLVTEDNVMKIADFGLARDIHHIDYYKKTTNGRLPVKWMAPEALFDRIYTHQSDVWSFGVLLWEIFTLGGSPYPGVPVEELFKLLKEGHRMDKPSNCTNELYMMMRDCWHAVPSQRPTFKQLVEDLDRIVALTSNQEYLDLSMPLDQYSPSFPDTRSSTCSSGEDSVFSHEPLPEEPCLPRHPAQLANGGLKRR"}, "[23]": {"biological_target": "Vascular endothelial growth factor receptor 1 (Homo sapiens, UniProt P17948)"}, "LIM domain kinase 1": {"biological_target": "LIM domain kinase 1 (Homo sapiens, UniProt P53667)", "test": "Navigating the Kinome. Panel member name: LIMK1"}, "[24]": {"biological_target": "Tyrosine-protein kinase Fyn (Homo sapiens, UniProt P06241)"}, "Activin receptor type-1": {"biological_target": "Activin receptor type-1 (Homo sapiens, UniProt Q04771)", "sequence (Q04771 whole entry)": "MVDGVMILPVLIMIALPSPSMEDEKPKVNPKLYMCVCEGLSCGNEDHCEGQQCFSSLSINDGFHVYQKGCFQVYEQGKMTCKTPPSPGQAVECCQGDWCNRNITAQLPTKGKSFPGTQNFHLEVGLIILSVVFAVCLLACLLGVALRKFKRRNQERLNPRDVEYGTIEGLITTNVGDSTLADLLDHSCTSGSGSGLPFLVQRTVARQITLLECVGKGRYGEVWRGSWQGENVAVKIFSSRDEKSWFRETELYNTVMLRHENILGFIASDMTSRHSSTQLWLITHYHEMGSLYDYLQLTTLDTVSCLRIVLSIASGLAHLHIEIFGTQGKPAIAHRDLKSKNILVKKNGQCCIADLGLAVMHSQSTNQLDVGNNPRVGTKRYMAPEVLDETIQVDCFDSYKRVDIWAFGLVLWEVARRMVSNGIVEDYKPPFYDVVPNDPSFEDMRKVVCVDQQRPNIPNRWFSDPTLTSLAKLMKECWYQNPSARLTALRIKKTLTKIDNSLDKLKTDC", "test": "Navigating the Kinome. Panel member name: ACVR1"}, "[25]": {"biological_target": "Tyrosine-protein kinase Lck (Homo sapiens, UniProt P06239)"}, "Aurora kinase A": {"biological_target": "Aurora kinase A (Homo sapiens, UniProt O14965)"}, "[26]": {"biological_target": "Dual specificity tyrosine-phosphorylation-regulated kinase 1A (Homo sapiens, UniProt Q13627)"}, "[27]": {"biological_target": "BDNF/NT-3 growth factors receptor (Homo sapiens, UniProt Q16620)", "sequence (Q16620 whole entry)": "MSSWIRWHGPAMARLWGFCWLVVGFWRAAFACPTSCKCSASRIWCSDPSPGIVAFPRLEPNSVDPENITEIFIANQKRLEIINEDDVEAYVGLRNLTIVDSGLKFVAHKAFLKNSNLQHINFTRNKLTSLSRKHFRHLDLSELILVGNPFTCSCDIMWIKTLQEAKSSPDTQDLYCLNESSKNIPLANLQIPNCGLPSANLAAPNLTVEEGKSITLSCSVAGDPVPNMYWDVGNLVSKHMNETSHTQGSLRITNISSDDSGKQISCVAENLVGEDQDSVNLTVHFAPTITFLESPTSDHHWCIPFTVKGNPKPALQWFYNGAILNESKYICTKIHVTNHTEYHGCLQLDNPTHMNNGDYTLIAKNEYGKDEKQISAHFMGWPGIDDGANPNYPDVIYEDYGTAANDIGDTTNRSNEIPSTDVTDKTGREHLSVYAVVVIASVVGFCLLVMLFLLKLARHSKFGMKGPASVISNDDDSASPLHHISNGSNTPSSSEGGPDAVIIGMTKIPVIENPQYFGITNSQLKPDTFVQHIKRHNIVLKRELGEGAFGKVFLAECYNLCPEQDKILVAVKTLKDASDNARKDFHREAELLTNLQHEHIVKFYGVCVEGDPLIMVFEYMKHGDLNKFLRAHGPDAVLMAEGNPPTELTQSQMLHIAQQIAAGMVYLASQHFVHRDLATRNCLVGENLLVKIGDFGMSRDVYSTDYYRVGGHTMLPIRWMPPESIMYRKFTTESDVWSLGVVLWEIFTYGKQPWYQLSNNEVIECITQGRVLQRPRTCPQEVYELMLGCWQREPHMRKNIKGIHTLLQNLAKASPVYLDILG"}, "[28]": {"biological_target": "Death-associated protein kinase 3 (Homo sapiens, UniProt O43293)", "sequence (O43293 whole entry)": "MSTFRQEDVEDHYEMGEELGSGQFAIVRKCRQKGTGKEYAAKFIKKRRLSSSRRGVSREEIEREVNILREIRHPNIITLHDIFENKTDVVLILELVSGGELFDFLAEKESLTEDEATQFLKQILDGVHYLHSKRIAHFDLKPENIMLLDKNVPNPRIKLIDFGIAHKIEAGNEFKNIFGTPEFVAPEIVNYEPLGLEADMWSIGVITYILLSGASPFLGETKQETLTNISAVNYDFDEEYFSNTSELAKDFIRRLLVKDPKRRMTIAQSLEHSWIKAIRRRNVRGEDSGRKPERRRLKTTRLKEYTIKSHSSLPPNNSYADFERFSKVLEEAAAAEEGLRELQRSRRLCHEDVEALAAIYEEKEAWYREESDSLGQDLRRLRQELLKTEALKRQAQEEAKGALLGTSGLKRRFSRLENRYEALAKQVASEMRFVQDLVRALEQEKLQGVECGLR"}, "[29]": {"biological_target": "Mitogen-activated protein kinase 9 (Homo sapiens, UniProt P45984)"}, "[30]": {"biological_target": "Cyclin-dependent kinase 7 (Homo sapiens, UniProt P50613)"}, "[31]": {"biological_target": "Tyrosine-protein kinase BTK (Homo sapiens, UniProt Q06187)"}, "Aurora kinase B": {"biological_target": "Aurora kinase B (Homo sapiens, UniProt Q96GD4)"}, "[32]": {"biological_target": "Serine/threonine-protein kinase Nek2 (Homo sapiens, UniProt P51955)", "sequence (P51955 whole entry)": "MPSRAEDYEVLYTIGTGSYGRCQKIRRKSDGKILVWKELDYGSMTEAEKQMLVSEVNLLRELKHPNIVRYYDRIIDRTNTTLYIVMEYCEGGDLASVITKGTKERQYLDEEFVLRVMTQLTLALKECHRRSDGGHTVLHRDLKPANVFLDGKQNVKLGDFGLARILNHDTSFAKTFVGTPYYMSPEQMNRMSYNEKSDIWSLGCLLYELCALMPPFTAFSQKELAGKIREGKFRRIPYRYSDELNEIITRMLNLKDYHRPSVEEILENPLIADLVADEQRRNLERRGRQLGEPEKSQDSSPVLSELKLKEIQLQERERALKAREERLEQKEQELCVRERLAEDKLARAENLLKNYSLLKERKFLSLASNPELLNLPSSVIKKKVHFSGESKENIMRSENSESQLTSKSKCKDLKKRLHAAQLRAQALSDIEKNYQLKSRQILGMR"}, "[33]": {"biological_target": "Dual specificity mitogen-activated protein kinase kinase 2 (Homo sapiens, UniProt P36507)", "test": "Navigating the Kinome. Panel member name: MAP2K2"}, "[34]": {"biological_target": "Melanin-concentrating hormone receptor 1 (Homo sapiens, UniProt Q99705)", "test": "Late-stage fluorescence-based counterscreen for antagonists of the G-protein coupled receptor 7 (GPR7): cell-based dose response assay to identify antagonists of the melanin-concentrating hormone receptor 1 (MCHR1) Set 6."}, "[35]": {"biological_target": "Neuropeptides B/W receptor type 1 (Homo sapiens, UniProt P48145)", "sequence (P48145 whole entry)": "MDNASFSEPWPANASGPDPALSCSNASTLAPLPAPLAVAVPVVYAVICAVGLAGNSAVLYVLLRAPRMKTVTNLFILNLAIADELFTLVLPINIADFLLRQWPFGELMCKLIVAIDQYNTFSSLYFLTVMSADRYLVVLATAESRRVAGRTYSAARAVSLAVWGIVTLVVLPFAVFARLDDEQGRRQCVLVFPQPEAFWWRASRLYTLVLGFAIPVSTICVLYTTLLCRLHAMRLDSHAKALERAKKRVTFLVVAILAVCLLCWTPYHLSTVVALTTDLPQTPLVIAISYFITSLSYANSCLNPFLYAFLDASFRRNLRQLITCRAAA", "test": "GPR7 antagonist potency, late-stage follow-up, cell-based, fluorescence, dose response, set 6 (AID 588583)"}}, "note": "Calls of active or inactive are those of the source.", "data": [{"smiles": "CCCCN(CCCC)CCCNC(=O)C12CN(Cc3ccccc3)CC1C(c1cccc([N+](=O)[O-])c1)=NO2", "note": "(stereo unspecified)", "values": [{"measurement": "IC50", "setting": "[1]", "result": "2.46 µM (active)"}, {"measurement": "IC50", "setting": "[2]", "result": "1.19 µM (active)"}]}, {"smiles": "Nc1ccc2c(C(=O)O)n(-c3ccccc3)nc2c1", "values": [{"measurement": "Ki", "setting": "[3]", "result": "> 6.31 µM (inactive)"}, {"measurement": "Ki", "setting": "[4]", "result": "> 5.01 µM (inactive)"}, {"measurement": "Ki", "setting": "[5]", "result": "3.16 µM (active)"}, {"measurement": "Ki", "setting": "[6]", "result": "2.51 µM (active)"}, {"measurement": "Ki", "setting": "[7]", "result": "> 3.98 µM (inactive)"}, {"measurement": "Ki", "setting": "[8]", "result": "> 3.98 µM (inactive)"}, {"measurement": "Ki", "setting": "[9]", "result": "2.51 µM (active)"}, {"measurement": "Ki", "setting": "[10]", "result": "> 6.31 µM (inactive)"}, {"measurement": "Ki", "setting": "Focal adhesion kinase 1", "result": "> 6.31 µM (inactive)"}, {"measurement": "Ki", "setting": "[11]", "result": "> 6.31 µM (inactive)"}, {"measurement": "Ki", "setting": "Activated CDC42 kinase 1", "result": "> 3.98 µM (inactive)"}, {"measurement": "Ki", "setting": "[12]", "result": "> 3.98 µM (inactive)"}, {"measurement": "Ki", "setting": "[13]", "result": "0.501 µM (active)"}, {"measurement": "Ki", "setting": "[14]", "result": "> 3.98 µM (inactive)"}, {"measurement": "Ki", "setting": "[15]", "result": "> 3.98 µM (inactive)"}, {"measurement": "Ki", "setting": "[16]", "result": "0.398 µM (active)"}, {"measurement": "Ki", "setting": "[17]", "result": "> 3.98 µM (inactive)"}, {"measurement": "Ki", "setting": "[18]", "result": "> 3.98 µM (inactive)"}, {"measurement": "Ki", "setting": "[19]", "result": "> 5.01 µM (inactive)"}, {"measurement": "Ki", "setting": "[20]", "result": "> 5.01 µM (inactive)"}, {"measurement": "Ki", "setting": "[21]", "result": "> 5.01 µM (inactive)"}, {"measurement": "Ki", "setting": "[22]", "result": "> 3.98 µM (inactive)"}, {"measurement": "Ki", "setting": "[23]", "result": "> 3.98 µM (inactive)"}, {"measurement": "Ki", "setting": "LIM domain kinase 1", "result": "0.794 µM (active)"}, {"measurement": "Ki", "setting": "[24]", "result": "> 6.31 µM (inactive)"}, {"measurement": "Ki", "setting": "Activin receptor type-1", "result": "> 3.98 µM (inactive)"}, {"measurement": "Ki", "setting": "[25]", "result": "> 6.31 µM (inactive)"}, {"measurement": "Ki", "setting": "Aurora kinase A", "result": "1.26 µM (active)"}, {"measurement": "Ki", "setting": "[26]", "result": "1 µM (active)"}, {"measurement": "Ki", "setting": "[27]", "result": "> 3.98 µM (inactive)"}, {"measurement": "Ki", "setting": "[28]", "result": "> 5.01 µM (inactive)"}, {"measurement": "Ki", "setting": "[29]", "result": "> 3.98 µM (inactive)"}, {"measurement": "Ki", "setting": "[30]", "result": "> 3.98 µM (inactive)"}, {"measurement": "Ki", "setting": "[31]", "result": "> 6.31 µM (inactive)"}, {"measurement": "Ki", "setting": "Aurora kinase B", "result": "> 3.98 µM (inactive)"}, {"measurement": "Ki", "setting": "[32]", "result": "2 µM (active)"}, {"measurement": "Ki", "setting": "[33]", "result": "> 3.98 µM (inactive)"}]}, {"smiles": "N#CC(c1ccc(Cl)cc1)c1c(Cl)cnn(Cc2cccc3ccccc23)c1=O", "note": "(stereo unspecified)", "values": [{"measurement": "IC50", "setting": "[34]", "result": "0.83 µM (active)"}, {"measurement": "IC50", "setting": "[35]", "result": "0.83 µM (active)"}]}]}
